Where two headings read alike, the source gives them in different places.
Key:
[1] = system: antigen-specific T cell activation; assay: antigen-specific (mBSA) activation of splenic T lymphocytes, 3H-thymidine incorporation; assay type: cell-based, mice; conditions: for EC50: Mus musculus, T-cell, read-out: EC50, inhibition of T cell activation
Description: C57BL6/J male mice, aged 7-10 weeks old, were immunised with 200 μg of methylated bovine serum albumin (mBSA) dissolved in 20 μL of saline, emulsified in 200 μL of Freund's complete adjuvant (FCA) by subcutaneous injection. Seven (7) days later mice received a booster immunisation with 100 μg mBSA in 10 μL saline plus 100 μL FCA by subcutaneous injection. After a further seven (7) days mice were killed and spleens collected aseptically into Hanks buffered saline solution (HBSS). A single cell suspension was prepared in Petri dishes by flushing DMEM using a 26G needle and 2 mL syringe. The resulting cell suspension was centrifuged for 5-7 minutes and supernatant discarded. Erythrocytes were lysed using a solution containing 0.579% NH4Cl, 0.000037% EDTA, and 0.1% NaHCO3 in a 37° C. water bath. Tubes were then filled with DMEM and centrifuged for 5-7 minutes. The cell-containing pellet was then resuspended in DMEM containing 5% fetal calf serum TICS) and 0.05% 2-mercapto-ethanol at a concentration of 1×10^6 cells/mL and plated at 1×10^5 cells/well in 96-well plastic tissue culture plates. Test substances (compound or vehicle) were added and incubated for 1 hour in a 37° C., 5% CO2 incubator. The specific stimulating antigen, mBSA, was then added at 10-50 μg/ml and plates incubated for 30 hours in a 37° C., 5% CO2 incubator. Tritiated ^3H-thymidine was then added at a concentration of 0.5 μCi/well for a further 18 hours. Cells were harvested on a Packard cell harvester, and the harvested material added to 750 μL/tube scintillation fluid. Scintillation counts were read on a Wallac beta-emission counter.
The concentration at which T cell activation was suppressed by 50% compared to vehicle-only-treated cells (EC50) was calculated using Prism® software. […] Further compounds were also tested for their ability to inhibit antigen-specific T cell activation as a marker of the inhibition of the cytokine or biological activity of MIF using this assay. Table 5 lists the EC50 for each compound in this assay, performed with concentrations of mBSA of either 50 or 10 μg/ml.

[2] = system: cutaneous delayed-type hypersensitivity reactions; assay: cutaneous delayed-type hypersensitivity (DTH) to mBSA; assay type: in vivo, mice; conditions: 15 mg/kg IP once per 24 hours; vs vehicle, p<0.05
Description: As noted above, cutaneous delayed-type hypersensitivity reactions (DTH) are an in vivo test of T cell activation. […] A compound which inhibits the cytokine of biological activity of MIF may be expected to inhibit the development of DTH reactions in vivo. DTH reactions were induced in mice developing antigen-induced arthritis (see below). C57BL6/J male mice, aged 7-10 weeks old, were immunized on day 0 with 200 μg methylated BSA (mBSA) emulsified in 200 μl of Freund's complete adjuvant (FCA) injected subcutaneously into the flank skin. Mice were treated with compound 5, administered by intraperitoneal injection, once per 24 hours at a dose of 15 mg/kg body weight. After seven days, mice received 100 μg mBSA and 100 μl FCA by intradermal injection at the base of the tail. After a further 14 days, arthritis was induced by intra-articular injection of 30 μg mBSA in 10 μl of sterile saline into the left knee, the right knee being injected with sterile saline alone. DTH reactions were induced as follows: these mice were challenged 24 h before the end of the experiment by intradermal injection of 50 μg mBSA in 20 μl saline into one hind footpad. […] Footpad swelling was quantified 24 h later using a micrometer. DTH was recorded as the difference in skin swelling between mBSA and saline-injected footpads, and expressed as change in footpad thickness (Δmm).

[3] = system: MIF-induced proliferation of S112 human dermal fibroblasts; assay: dermal fibroblast proliferation induced by recombinant MIF; assay type: cell-based; conditions: compound 0.013 μM
Description: The activity of compound 5 was studied in a bioassay utilising MIF-induced proliferation of human dermal fibroblasts. S112 human dermal fibroblasts were propagated in RPMI/10% foetal calf serum (FCS). Prior to experimentation, cells were seeded at 10^5 cells/ml in RPMI/0.1% 13SA for 18 hours. At time point zero, culture medium was replaced with RPMI/10% FCS and treatments administered. Cells were treated with recombinant human macrophage migration inhibitory factor (MIF) 50 ng/ml and/or compound 5 at a 1-1000 molar ratio to the concentration of MIF. At a time point 30 hours later, cells were pulsed with 1 μCi/well of ^3H-thymidine. At a time point 48 hours after commencement of the experiment, cells were harvested using a semi-automated cell harvester. The radioactivity incorporated into DNA was determined by liquid scintillation counting, with results expressed as [^3H] thymidine incorporation.

[4] = system: IL-1-induced proliferation of human rheumatoid arthritis FLS; assay: inhibition of human rheumatoid arthritis synovial fibroblast proliferation; assay type: cell-based
Description: Fibroblast-like synoviocytes (FLS) were obtained from synovium of rheumatoid (RA) patients undergoing joint replacement surgery and prepared according to Lacey et al (26). FLS were isolated using enzyme digestion and cultured in RPMI/10% fetal calf serum (FCS) as previously described. A single cell suspension was obtained by digesting minced synovial tissue with 2.4 mg/ml Dispase (grade II, 5 U/mg) 1 mg/ml collagenase (type II) and DNase (type 1). FLS were propagated in 10 cm culture plates in RPMI supplemented with 10% FCS at 37° C. in a 5% CO2 humidified incubator. Cells beyond 3rd passage were more than 99% CD45−. Cells were used between passages 4 and 9. Cells from four individual human RA donor FLS used.
To determine the effect of compound 5 on FLS proliferation, DNA synthesis was measured by [^3H] thymidine incorporation. FLS were seeded overnight at 0.5×10^5 cells per well in 24 well tissue culture plates in RPMI/10% FCS. Cell growth was synchronised by culturing FLS in RPMI/0.1% bovine serum albumin for 24 h. […] FLS were detached using Trypsin-EDTA, harvested using a cell harvester, and the radioactivity incorporated into DNA determined using a Wallac 1409 liquid scintillation counter. Results were expressed as the percentage of control (untreated) cell proliferation, and the mean±SEM of four experiments calculated.

**Q.** Which results are given for `CCCCCOC(=O)c1ccc2[nH]c(=O)[nH]c2c1` [Compound 5]?
**A.** effect on antigen-specific T cell activation ([1]; FIG. 8, mBSA 50 μg/mL, increasing concentrations): dose-dependent and statistically significant inhibitory effect; EC50 ([1]; mBSA 10 μg/ml): 15.3 µM; EC50 ([1]; mBSA 50 μg/ml): 13.8 µM; cutaneous DTH reactions (change in footpad thickness) [2]: statistically significant reduction; effect on proliferation of S112 cells treated with recombinant human MIF ([3]; FIG. 12): marked and statistically significant inhibitory effect; inhibition at 0.013 µM ([3]; Homo sapiens, Fibroblast, read-out: % inhibition of MIF-induced proliferation, rhMIF 50 ng/ml, S112, P < 0.001): 98%; FLS proliferation, percentage of control (untreated) cell proliferation ([4]; IL-1β 0.1 ng/ml + compound 5 50 μM, mean±SEM of four experiments, IL-1 + vehicle 156 ± 32): 18 ± 6 percentage of control; IL-1-induced FLS proliferation ([4]; compound 5 50 μM): marked and statistically significant inhibition
